Test results: EP2886531B1, “Aspartic acid derivatives” (Merck Patent GmbH, priority 2013, dated 2015)

Tests used:
Assay type in all cases: physicochemical
[1] = Prolonged piperidine treatment of VKDNYI peptide resin (aspartimide formation, Asp-Asn motif); conditions: piperidine
Method: (§1) Automated peptide synthesis, piperidine treatments of the resin samples and final TFA cleavages are performed as described in the protocols of example 4. In addition, 50 mg peptide resin samples are treated with a solution of DBU/piperidine/DMF (1:19:79) over 225 minutes to investigate the aspartimide formation at harsher Fmoc deprotection conditions often used for complete Fmoc removals in aggregation prone sequences.
(§2) The resulting peptide samples are analysied and all relevant impurities identified by UPLC-MS analysis (Xevo Waters Q-TOF-1, lock mass = 556.277 (leu-enkephaline), LC-conditions: CHS 18 1,7 µm (100x2.1 mm) at 40°C; water acetonitrile gradient of 5% to 35 % B over 10 min where buffer A is 0.1 % formic acid in water and buffer B is 0.1 % formic acid in acetonitrile, flow 0.6 ml/min).
In table 2 the amounts of by-products formed after the prolonged exposure of the peptide resins to piperidine (110 Fmoc removal cycles) are summarized for all side-chain protections used in this invention. […] Table 2: Results after 110 Fmoc removal cycles using piperidine, target peptide = VKDNYI, the aspartimide (Asu) derived by products are the aspartimide itself and the sum of piperidides

[2] = Prolonged piperidine treatment of VKDRYI peptide resin (aspartimide formation, Asp-Arg motif)
Method: (§3) Automated peptide synthesis, piperidine treatments of the resin samples and final TFA cleavages are performed as described in the protocols of example 4. In addition, to evaluate the advantage of the protecting groups used in this invention in heat accelerated SPPS we treat 50 mg peptide resin samples with a solution of 20% piperidine in DMF at 60°C over 200 minutes. Microwave assisted peptide synthesis conditions are often used to shorten peptide synthesis times and increase coupling reaction and Fmoc deprotection.
In table 4 the amounts of by-products formed after the prolonged exposure of the peptide resins to piperidine (110 Fmoc removal cycles) are summarized for all side-chain protections used in this invention. Table 4: Results after 110 Fmoc removal cycles using piperidine, target peptide sequence = VKDRYI, the aspartimide (Asu) derived by-products are the aspartimide itself and the sum of piperidides

[3] = Prolonged piperidine treatment at 60°C of VKDRYI peptide resin (aspartimide formation)
Method: as §3
The application of microwave heating to SPPS is accelerating coupling and deprotection reactions leading to shorter cycle times, higher repetitive yields, and ultimately purer peptides. On the other hand, microwave energy can also lead to increased levels of aspartimide by-products. To overcome that drawback we evaluated the advantage of the side-chain protections used in this invention by exposing the peptide resins to Fmoc removal cycles at 60 degrees Celsius.
In table 5 the amounts of by-products formed after the prolonged exposure of the peptide resins to piperidine at 60 degree Celsius (100 Fmoc removal cycles) are summarized for all side-chain protections used in this invention. […] Table 5: Results after 100 Fmoc removal cycles using piperidine at 60°C, target peptide sequence = VKDRYI, the aspartimide (Asu) derived by-products are the aspartimide itself and the sum of piperidides

[4] = Prolonged DBU treatment of VKDNYI peptide resin (aspartimide formation)
Method: as §1, §2
In table 3 the amounts of by-products formed after prolonged DBU treatments are summarized for all side-chain protections used in this invention. […] Since the DBU mediated Fmoc removals are much quicker than the piperidine mediated, this experiment again represents a Fmoc SPPS assembly of an 100mer after introducing the aspartic acid residue using exclusively DBU for Fmoc cleavage. Table 3: Results after 110 Fmoc removal cycles using DBU, target peptide = VKDNYI, the aspartimide (Asu) derived by-products are the aspartimide itself and the sum of piperidides

[5] = VKDNYI, 110 Fmoc removal cycles
[6] = VKDRYI, 110 Fmoc removal cycles
[7] = VKDRYI, 20% piperidine in DMF at 60°C, 200 minutes
[8] = VKDNYI, DBU/piperidine/DMF (1:19:79), 225 minutes

With `CCCCC(CCCC)(CCCC)OC(=O)C[C@H](NC(=O)OCC1c2ccccc2-c2ccccc21)C(=O)O` [Bno] the “Asu per 10' cycle” value ([1]; VKDNYI) was 0.04, the “aspartimide side reaction during the Fmoc removals, rate per cycle” value ([1]; VKDNYI) was 0.05% and the “D/L-Asu [%]” value [1, 5] was 0.9%. The “piperidides [%]” value [1, 5] was 3.6%, the “target [%]” value ([1]; target peptide VKDNYI, 110 Fmoc removal cycles) was 95.5% and the “Asu per 10' cycle” value ([2]; VKDRYI) was 0.06. The Half-life in cycles ([2]; VKDRYI) was 1202 cycles, the “aspartimide side reaction during the Fmoc removals per cycle” value ([2]; VKDRYI) was “less than 0.06%” and the “D/L-Asu [%]” value [2, 6] was 2.6%. The “piperidides [%]” value [2, 6] was 3.6%, the “target [%]” value ([2]; target peptide VKDRYI, 110 Fmoc removal cycles) was 93.8% and the Half-life in cycles [3] was 718 cycles. For the same compound, the “D/L-Asu [%]” value [3, 7] was 4.9%, the “piperidides [%]” value [3, 7] was 4.3% and the “Asu per 10' cycle” value ([3]; VKDRYI, piperidine at 60°C) was 0.1. For the same compound, the “target [%]” value ([3]; target peptide VKDRYI, 20% piperidine in DMF at 60°C over 200 minutes, 100 Fmoc removal cycles) was 90.8%, the “Asu per 2' cycle” value ([4]; VKDNYI, DBU) was 0.3 and the “aspartimide formation per 2 minute Fmoc removal cycle” value ([4]; VKDNYI, DBU) was “less than 0.3%”. The “D/L-Asu [%]” value [4, 8] was 3.5%, the “piperides [%]” value [4, 8] was 22.0% and the “target [%]” value ([4]; target peptide VKDNYI, DBU/piperidine/DMF (1:19:79) over 225 minutes, 110 Fmoc removal cycles) was 74.5%.
